Measured values as given in ChEMBL document CHEMBL3108695, “Inhibitors of factor d may provide a treatment for age-related macular degeneration” (ACS Med Chem Lett, 2014).

Molecular target: Complement factor D (Homo sapiens, UniProt P00746)
Test: Inhibition of recombinant human factor D expressed in Escherichia coli using Z-Lys-thiobenzyl and 2,4-dinitrobenzenesulfonyl-fluoresceine as substrate preincubated for 1 hr followed by substrate addition by spectrofluorimetric analysis

Chain of Complement factor D (P00746 whole entry): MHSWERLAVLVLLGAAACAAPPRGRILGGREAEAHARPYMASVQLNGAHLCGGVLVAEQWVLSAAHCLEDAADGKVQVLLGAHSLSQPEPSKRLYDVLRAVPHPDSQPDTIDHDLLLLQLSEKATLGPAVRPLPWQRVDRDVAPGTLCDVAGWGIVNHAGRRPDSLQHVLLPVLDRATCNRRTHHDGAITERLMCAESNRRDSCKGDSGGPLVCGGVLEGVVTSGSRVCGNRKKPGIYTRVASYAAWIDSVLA

- IC50: 2 nM
Structure (SMILES): NC(=O)c1nn(CC(=O)N2[C@@H]3C[C@@H]3C[C@H]2C(=O)Nc2cccc(Br)n2)c2cnc(CF)cc12
